PubChem BioAssay AID504903 (Southern Research Specialized Biocontainment Screening …, 2011)
The source made the active and inactive calls. No rule for the calls is given here.

Tests used:
[1] = M. tuberculosis growth inhibition, dose response, H37Rv, 7H9 media, purified and synthesized compounds, set 5 (AID 504903); conditions: M. tuberculosis H37Rv growth in 7H9 medium; at 100 µM (top of the series)
[2] = system: M. tuberculosis H37Rv growth in 7H9 medium; assay: as above; conditions: for IC50: measured here: M. tuberculosis growth IC50

| Structure (SMILES) | growth inhibition [1] | IC90 [2] [nM] | IC50 [2] [nM] |
| --- | --- | --- | --- |
| Cc1ccc(NC(=O)CSc2nc3ccccc3c(=O)[nH]2)cc1Cl | -6.21% (inactive) | – | – |
| CCOC(=O)CSc1nc(C)c(C)c(=O)[nH]1 | -4.51% (inactive) | – | – |
| O=C(CSc1nc2ccccc2c(=O)[nH]1)NCc1ccc(Cl)cc1 | – | 980 | 440 |
| CC(C)CCNC(=O)CSc1nc2ccccc2c(=O)[nH]1 | – | 120 | < 60 |
| CC(Sc1nc2ccccc2c(=O)[nH]1)C(=O)NC1CCCCC1 (stereo not drawn) | -8.54% (inactive) | – | – |
| NNC(=O)c1ccncc1 | – | 320 | 190 |
| O=C(CSc1nc2ccccc2c(=O)[nH]1)NC1CCCCC1 | – | 310 | 160 |
| Cc1nc(SCc2ccccc2Cl)[nH]c(=O)c1C | -6.23% (inactive) | – | – |
| Cc1cc(Br)ccc1NC(=O)c1cnc(N2CCN(c3ccccn3)CC2)c2ccccc12 | – | 6160 | 680 |
| Cc1[nH]c2ccccc2c1C(=O)COC(=O)c1ccc([N+](=O)[O-])s1 | – | – | > 50300 |
| CCOC1OC(=O)C(Cl)=C1Nc1ccccc1C (stereo not drawn) | – | 5450 | 2900 |
| Cc1nc(SCC(=O)N(C)c2ccccc2)[nH]c(=O)c1C | -9.88% (inactive) | – | – |
| CO[C@H]1/C=C/O[C@@]2(C)Oc3c(C)c(O)c4c(O)c(c(C=NN5CCN(C)CC5)c(O)c4c3C2=O)NC(=O)/C(C)=C\C=C\[C@H](C)[C@H](O)[C@@H](C)[C@@H](O)[C@@H](C)[C@H](OC(C)=O)[C@@H]1C | – | 10 | < 10 |
| Cc1cc(=O)[nH]c(=S)[nH]1 | -8.51% (inactive) | – | – |
| Cc1nc(SCC(=O)NC2CCCCC2)[nH]c(=O)c1C | – | 230 | < 10 |
| Nc1c(C(=O)NC2CCCCC2)nsc1C(=O)OCC(=O)NC1CCCCC1 | – | 42400 | 1970 |
| Cc1nc(SCC(=O)NCCC(C)C)[nH]c(=O)c1C | – | 9790 | 4870 |
| CCC(Sc1nc2ccccc2c(=O)[nH]1)C(=O)NC1CCCCC1 (stereo not drawn) | -1.65% (inactive) | – | – |
| Cc1ccc(C(=O)N/N=C(/CC(=O)c2cccs2)C(F)(F)F)cc1 | – | 2940 | 1250 |
| Cc1cccc(-c2oc3ccc(-c4ccc5c(c4)OCO5)cc3c2C#Cc2cncn2C)c1 | – | 3030 | 2520 |
| CN[C@@H]1[C@H](O[C@H]2[C@H](O[C@H]3[C@H](O)[C@@H](O)[C@H](N=C(N)N)[C@@H](O)[C@@H]3N=C(N)N)O[C@@H](C)[C@]2(O)C=O)O[C@@H](CO)[C@H](O)[C@H]1O | – | 140 | 70 |
| CN(C)C(=O)CSc1nc2ccccc2c(=O)[nH]1 | -2.5% (inactive) | – | – |
| NC(=O)c1cnccn1 | 0.23% (inactive) | – | – |

| Structure (SMILES) | growth inhibition [1] | IC90 [2] [nM] | IC50 [2] [nM] |
| --- | --- | --- | --- |
| CCC(Sc1nc2ccccc2c(=O)[nH]1)C(=O)Nc1cccc(OC)c1 (stereo not drawn) | -2.52% (inactive) | – | – |
| O=C(CSc1nc2ccccc2c(=O)[nH]1)N1CCOCC1 | -3.23% (inactive) | – | – |
| COc1c(N2CCNC(C)C2)c(F)cc2c(=O)c(C(=O)O)cn(C3CC3)c12 (stereo not drawn) | – | 120 | 90 |
| Nc1cc(=O)[nH]c(SCC(=O)NC2CCCCC2)n1 | -2.55% (inactive) | – | – |
| CCOc1ccc(-c2cc(C)[n+](CCc3ccc(OC)c(OC)c3)c(-c3ccc(OCC)cc3)c2)cc1 | – | 860 | 480 |
| Cc1ccc(NC(=O)COC(=O)CCc2c[nH]c3ccccc23)cc1[N+](=O)[O-] | – | 3590 | 860 |
| O=C(CSc1ccccn1)NC1CCCCC1 | – | – | > 95800 |
| COC(=O)c1ccc(CNc2c(N3CCCC3)c(=O)c2=O)cc1 | 23.6% (inactive) | – | – |
| O=C(CSc1nc2c(c(=O)[nH]1)CCCC2)NC1CCCCC1 | – | < 70 | < 30 |
| Cn1c(SCC(=O)NC2CCCCC2)nc2ccccc2c1=O | -10.1% (inactive) | – | – |
| CC(C)N=c1cc2n(-c3ccc(Cl)cc3)c3ccccc3nc-2cc1Nc1ccc(Cl)cc1 | – | 310 | 10 |
| COC(=O)C(Nc1nc(SCC(=O)NC2CCCCC2)nc2ccccc12)c1ccccc1 (stereo not drawn) | 0.4% (inactive) | – | – |
| Cc1nc(SCC(N)=O)[nH]c(=O)c1C | 1.58% (inactive) | – | – |
| CC(C)CCNC(=O)CSc1nc2c(c(=O)[nH]1)CCC2 | – | 1030 | 600 |
| COc1cccc(NC(=O)CSc2nc3c(c(=O)[nH]2)CCC3)c1 | -9.73% (inactive) | – | – |
| CCSc1nc(C)c(C)c(=O)[nH]1 | -1.81% (inactive) | – | – |
| CN(C(=O)CSc1nc2ccccc2c(=O)[nH]1)C1CCCCC1 | -0.89% (inactive) | – | – |
| NC[C@H]1O[C@H](O[C@H]2[C@H](O)[C@@H](O[C@H]3O[C@H](CO)[C@@H](O)[C@H](N)[C@H]3O)[C@H](N)C[C@@H]2N)[C@H](O)[C@@H](O)[C@@H]1O | – | 2360 | 1140 |
| Cc1cc(=O)[nH]c(SCC(=O)NC2CCCCC2)n1 | 8.24% (inactive) | – | – |
| CC1CCN(C(=O)CSc2nc3ccccc3c(=O)[nH]2)CC1 | -3.58% (inactive) | – | – |
| Cc1nc(SCC(=O)NC2CCCC2)[nH]c(=O)c1C | – | 10500 | 4490 |
| CC[N+](C)(CC)CCCCOc1ccc2c(c1)C(=O)c1cc(OCCCC[N+](C)(CC)CC)ccc1-2 | – | 2450 | 1500 |
| CC(C)NC(=O)CSc1nc2ccccc2c(=O)[nH]1 | – | 18800 | 4770 |

| Structure (SMILES) | growth inhibition [1] | IC90 [2] [nM] | IC50 [2] [nM] |
| --- | --- | --- | --- |
| Cc1cnc(SCC(=O)NC2CCCCC2)[nH]c1=O | -2.75% (inactive) | – | – |
| CC1CCN(C(=O)C2CCN(c3nnc(-n4cccc4)s3)CC2)CC1 | – | 4660 | 2550 |
| COc1ccc(NC(=O)CSc2nc3ccccc3c(=O)[nH]2)cc1 | 4.59% (inactive) | – | – |
| O=c1[nH]c(=S)[nH]c2ccccc12 | -4.57% (inactive) | – | – |
| COC(=O)C(C)Oc1ccc(Cc2ncc(C(F)(F)F)cc2Cl)cc1 (stereo not drawn) | – | 7660 | 3110 |
| CN1CCC(NC(=O)CSc2nc3ccccc3c(=O)[nH]2)CC1 | -7.75% (inactive) | – | – |
| O=c1[nH]c(SCc2ccccc2Cl)nc2c1CCCC2 | -4.24% (inactive) | – | – |
| NC(=O)CSc1nc2ccccc2c(=O)[nH]1 | 3.23% (inactive) | – | – |
| O=C(CSc1nc2c(c(=O)[nH]1)CCC2)NC1CCCCC1 | – | < 70 | < 40 |
| c1ccc(/N=C2\N=C(Nc3ccccn3)c3ccccc32)nc1 | – | 1330 | 750 |
| Cc1c[nH]c(=S)[nH]c1=O | -1.72% (inactive) | – | – |
| CNC(=O)CSc1nc2ccccc2c(=O)[nH]1 | – | – | 56200 |
| CCC(Sc1nc2c(c(=O)[nH]1)CCC2)C(=O)Nc1cccc(OC)c1 (stereo not drawn) | 0.63% (inactive) | – | – |
| Cc1cccc(/C=C/C(=O)c2ccc([N+](=O)[O-])o2)c1 | – | 800 | 310 |
| CCCc1cc(C(N)=S)ccn1 | – | – | 6010 |
| O=C(CSc1nccc(=O)[nH]1)NC1CCCCC1 | -5.41% (inactive) | – | – |
| O=C(CSc1nc2ccccc2c(=O)[nH]1)NC1CCCC1 | – | 550 | 30 |
| O=C(CSc1ncccn1)NC1CCCCC1 | -3.3% (inactive) | – | – |
| CCSc1nc2ccccc2c(=O)[nH]1 | -4.06% (inactive) | – | – |
| Cc1[nH]c(=S)[nH]c(=O)c1C | -6.68% (inactive) | – | – |
| Cc1cc(C)n2nc(N)c(N=Nc3ccccc3)c2n1 | – | 5540 | 3880 |
| COc1cccc(NC(=O)CSc2nc3ccccc3c(=O)[nH]2)c1 | -1.31% (inactive) | – | – |
